In ChEMBL document CHEMBL5550135, “Targeting the cysteine biosynthesis pathway in microorganisms: Mechanism, structure, and drug discovery” (Eur J Med Chem, 2024):
pIC50, pKd: −log10 of the molar value. Values after ≈ are worked out from the molar mass of the structure shown.

Experiments:
Escherichia coli = assay: Antibacterial activity against Escherichia coli assessed as reduction in bacterial growth by broth microdilution method; assay type: functional
[1] = system: Mycobacterium tuberculosis; assay: Antimycobacterial activity against Mycobacterium tuberculosis H37Rv assessed as reduction in bacterial growth incubated for 7 days by resazurin based assay; assay type: functional; details: 168 h, time 7 day
[2] = Binding affinity to Salmonella Typhimurium ATCC 14028 O-acetylserine sulfhydrylase B assessed as dissociation constant; design: species or system Salmonella enterica subsp. enterica serovar Typhimurium
[3] = Binding affinity to Salmonella Typhimurium ATCC 14028 O-acetylserine sulfhydrylase A assessed as dissociation constant; design: species or system Salmonella enterica subsp. enterica serovar Typhimurium
[4] = Inhibition of Salmonella enterica Serine acetyltransferase by spectrophotometric analysis
Staphylococcus aureus = assay: Antibacterial activity against methicillin-resistant Staphylococcus aureus ATCC 33591 assessed as reduction in bacterial growth incubated for 18 hrs by broth microdilution method; assay type: functional
[5] = Inhibition of Methicillin-resistant Staphylococcus aureus ATCC 33591 Serine acetyltransferase
[6] = target: O-acetylserine sulfhydrylase (Mycobacterium tuberculosis, UniProt P9WP55); assay: Inhibition of Mycobacterium tuberculosis ATCC 25618 Cysteine synthase A
[7] = Inhibition of Entamoeba histolytica O-acetylserine sulfhydrylase
[8] = Inhibition of Klebsiella pneumoniae Serine acetyltransferase

O=C(CSc1c[nH]nn1)Nc1ccccc1F
MIC (Escherichia coli): 1.6 µg/mL (≈ 6.34 µM)

Cc1ccc(S(=O)(=O)n2nc(-c3ccccc3)c3c(N)ncnc32)cc1
MIC (Escherichia coli): 0.57 µg/mL (≈ 1.56 µM)

O=C1N=C2C(C(=O)N=C3SC([N+](=O)[O-])=CN32)C(c2ccccc2C(F)(F)F)N1 (stereo unspecified)
MIC [1]: 7.6 µM (≈ 3.13 µg/mL)

Cc1ccc(C[C@@]2(C(=O)O)C[C@H]2c2ccccc2)cc1
pKd [2]: 6.31
pKd [3]: 7.70

Cc1ccc(Nc2nc(-c3cc(C(=O)O)no3)cs2)cc1
pIC50 [4]: 3.96

CC1=C2[C@@H](OC1=O)C(=O)[C@H]1[C@]3(C)CCCC(C)(C)[C@H]3CC[C@@]1(O)[C@H]2O
MIC (Staphylococcus aureus): 12.5 µg/mL (≈ 35.9 µM)
pIC50 [5]: 4.14

CC1(C)CCC[C@]2(C)[C@@H]1CC[C@]1(O)[C@H](O)C3=C(CO)C(=O)OC3=C[C@@H]21
MIC (Staphylococcus aureus): 25 µg/mL (≈ 71.7 µM)
pIC50 [5]: 4.14

C[C@@H]1O[C@@H](O[C@@H]2C[C@H](c3ccc4c(c3O)C(=O)C3=C(C4=O)[C@@]4(O[C@H]5CC[C@H](O)[C@H](C)O5)C(=O)C[C@](C)(O)C[C@@]4(O)C=C3)O[C@H](C)[C@H]2O)CC[C@@H]1O[C@H]1C[C@@H](O)[C@H](O)[C@@H](C)O1
pIC50 [6]: 6.20
pIC50 [7]: 6.51

Cc1ccc(C[C@@]2(C(=O)O)C[C@H]2c2cccc(-c3cc(O)cc(F)c3)c2)cc1
pKd [2]: 6.21
pKd [3]: 7.52

Cc1cc(C)cc(Nc2nc(-c3cc(C(=O)O)no3)co2)c1
pIC50 [4]: 5.37

O=c1c(O)c(-c2ccc(O)c(O)c2)oc2cc(O)cc(O)c12 [QUERCETIN]
pIC50 [8]: 5.43
